In US9386767B2, “Derivatives of dillapiol and related monolignans and use thereof” (UNIVERSITY OF OTTAWA, priority 2011, dated 2016):
Values joined by “and” are separate entries in the source; they are usually repeats but may differ in a detail not shown here. Equal values may be shown once. Read-outs that look alike come from different tables or passages of the source.

Columns and labels:
CYP3A4 (BDGentest) = biological target: T1, CYP3A4 (BDGentest) (Homo sapiens, UniProt P08684); experiment: New CYP3A4 bioassay with dibenzylfluorescein (DBF) substrate (Foster et al. 2011); assay type: biochemical; details: for IC50: human microsomes; for % Activity relative to dillapiol = 1: new CYP3A4 bioassay, inhibition relative to dillapiol
T1 construct: purchased BDGentest
T1 sequence (P08684 whole entry): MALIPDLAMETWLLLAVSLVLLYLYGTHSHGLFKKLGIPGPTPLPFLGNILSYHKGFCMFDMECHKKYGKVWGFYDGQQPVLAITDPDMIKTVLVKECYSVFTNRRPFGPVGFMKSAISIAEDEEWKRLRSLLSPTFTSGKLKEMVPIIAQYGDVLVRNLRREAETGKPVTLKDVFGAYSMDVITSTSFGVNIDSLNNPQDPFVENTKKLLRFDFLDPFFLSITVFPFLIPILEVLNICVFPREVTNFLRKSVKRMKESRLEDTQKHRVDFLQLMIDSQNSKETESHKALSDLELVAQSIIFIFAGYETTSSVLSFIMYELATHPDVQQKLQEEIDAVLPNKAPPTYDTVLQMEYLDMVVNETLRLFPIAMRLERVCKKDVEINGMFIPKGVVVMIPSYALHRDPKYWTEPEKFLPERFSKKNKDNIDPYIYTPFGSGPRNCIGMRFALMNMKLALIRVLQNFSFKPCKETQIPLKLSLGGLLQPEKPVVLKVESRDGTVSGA
Experimental: (§1) In the second set of experiments, new CYP3A4 enzyme inhibition assays were conducted with a designed set of analogs and newer method described by Foster et al. (J. Agric. Food Chem, 2011, 59(9):5159-5163). This assay using the substrate dibenzylfluorescein (DBF) is considered more representative of CYP3A4 activity as compared to the benzyloxyresorufin assay previously used (Budzinski et al., 2000, Phytomedicine, 7(4):273-282).
Aliquots (10 μL) of stock solutions of the undiluted products were screened for their ability to inhibit CYP3A4 (BDGentest) metabolism of the non-fluorescent dibenzylfluorescein (DBF) substrates to the fluorescent metabolite using an in vitro fluorometric microtiter plate assay (CytoFluor Series 4000 multi-well plate reader). Briefly, assays were performed with 10 μL of product in clear-bottom, opaque-welled microtiter plates (96 well, Corning Costar). Control and control blank wells contained 5% ethanol, and test and test blank wells contained the product. All wells tested contained distilled water, β-nicotinamide adenine dinucleotide phosphate, reduced form (NADPH, Sigma Chemicals), and the enzyme substrate DBF (final concentration of 1 μM/well), for a total reaction volume of 200 μL. Control and test wells also contained live isozyme, within human microsomes, in phosphate buffer solution (PBS; 0.5 M, pH 7.4), and control blank and test blank wells contained denatured isoenzyme in PBS. Fluorescence was measured at 485 nm excitation and 530 nm emission, with a gain of 50.

human cytochrome CYP3A4 = human cytochrome CYP3A4 (Homo sapiens, UniProt P08684); experiment: CYP3A4 inhibition assay of dillapiol derivatives (earlier benzyloxyresorufin assay); assay type: biochemical; details: for Rel. Activity Dillapiol = 1.0: CYP3A4 inhibition relative to dillapiol
human cytochrome CYP3A4, sequence (P08684 whole entry): as above
Experimental: A suite of dillapiol derivatives were synthesized and assayed for their capacity to inhibit human cytochrome CYP3A4. For each molecule, experimental IC50 values for CYP3A4 inhibition were determined. These IC50 values together with the log of the octanol-water partition coefficient (logP) and molecular refractivity (MR) are shown in Table 1, and were used as parameters to model a quantitative structure-activity relationship (QSAR). The resulting equations were used to guide the design of further derivatives with enhanced CYP3A4 inhibition.
as §1

[1] = DBF substrate 1 μM, read-out: IC50 (converted)
[2] = Table 1, CYP3A4 inhibition, read-out: IC50

SMILES	IC50 (CYP3A4 (BDGentest); [1])	% Activity relative to dillapiol = 1 (CYP3A4 (BDGentest))	also measured
COc1c(CCCOC(=O)c2ccc(Cl)cc2Cl)cc2c(c1OC)OCO2	1.4 µM and 1.43 µM	6.56	
COc1c(CCCOC(=O)c2ccc3c(c2)OCO3)cc2c(c1OC)OCO2	2.63 µM	3.49	
CCCCCC(=O)OCCCc1cc2c(c(OC)c1OC)OCO2	3.25 µM	2.82	
COc1c(CCCOCc2ccccc2)cc2c(c1OC)OCO2	6.66 µM	1.38	
COc1c(CCCOC(=O)CCCc2ccccc2)cc2c(c1OC)OCO2	4.14 µM	2.22	
COc1c(CCCOCc2ccc(F)cc2)cc2c(c1OC)OCO2	10.3 µM	0.89	
COc1c(CCCOC(=O)c2ccc(Cl)cc2)cc2c(c1OC)OCO2	1.56 µM	5.89	
COc1c(CCCOC(=O)/C=C/c2ccccc2)cc2c(c1OC)OCO2	2.38 µM	3.86	
C/C=C(\C)C(=O)OCCCc1cc2c(c(OC)c1OC)OCO2	1.55 µM	5.9	
COc1c(CCCOC(C)=O)cc2c(c1OC)OCO2	9.22 µM and 9.21 µM	1	
COc1c(CCCOC(=O)c2ccccc2Cl)cc2c(c1OC)OCO2	5.27 µM	1.75	
COc1cc2c(cc1CCCOC(=O)/C=C/c1ccccc1)OCO2	4.73 µM	1.94	
C=CCc1cc2c(cc1OCc1cc(OC)ccc1OC)OCO2	2.15 µM	4.27	
C=CCc1cc2c(cc1OCc1ccccc1)OCO2	1.44 µM and 1.43 µM	6.37	
CCCc1cc2c(cc1OC)OCO2			IC50 (CYP3A4 (BDGentest); IC50, DBF substrate 1 μM): > 26 µM
O=C(/C=C/c1ccccc1)OCCCc1cc2c(cc1OCc1ccccc1)OCO2	8 µM and 7.92 µM	1.125	
COc1c(CCCOC(=O)c2ccc([N+](=O)[O-])cc2)cc2c(c1OC)OCO2	> 13 µM		
COc1c(CCCOC(=O)C(C)(C)C)cc2c(c1OC)OCO2	2.78 µM and 2.77 µM	3.3	
COc1c(CCCOC(=O)C2CCCCC2)cc2c(c1OC)OCO2	1.9 µM	4.83	

SMILES	IC50 (CYP3A4 (BDGentest); [1])	% Activity relative to dillapiol = 1 (CYP3A4 (BDGentest))	also measured
OCCCc1cc2c(cc1OCc1ccccc1)OCO2	3 µM	3	
COc1cc2c(cc1CCCO)OCO2	4.05 µM and 4.04 µM	2.25	
COc1c(CCCOC(=O)Cc2ccccc2)cc2c(c1OC)OCO2		4.83	IC50 (CYP3A4 (BDGentest); IC50, DBF substrate 1 μM): 1.9 µM
O=C(CCCC/C=C/c1ccc2c(c1)OCO2)OCCCO	4.1 µM and 4.08 µM	2.2	
OCCCCc1ccc2c(c1)OCO2	> 26 µM		
COc1c(CCCC(O)(c2ccccc2)c2ccccc2)cc2c(c1OC)OCO2	1.06 µM	8.7	
COc1c(CC/C=C/C(=O)NC(C)C)cc2c(c1OC)OCO2	2.1 µM	4.37	
C=CCc1cc2c(cc1OC)OCO2			IC50 (CYP3A4 (BDGentest); IC50, DBF substrate 1 μM): > 26 µM
COc1c(CCCC(c2ccccc2)c2ccccc2)cc2c(c1OC)OCO2	> 20 µM		
O=C(O)CCCC/C=C/c1ccc2c(c1)OCO2	> 20.1 µM		
COc1c(CCC(C)O)cc2c(c1OC)OCO2 (stereo not drawn)	> 20 µM		
COc1c(CCCCO)cc2c(c1OC)OCO2	11.6 µM	0.8	
O=C(OCCCc1cc2c(cc1OCc1ccccc1)OCO2)c1ccccc1	3.9 µM and 3.84 µM	2.3	
O=C(OCCCc1cc2c(cc1OCc1ccccc1)OCO2)c1ccc2c(c1)OCO2	1.4 µM and 1.38 µM	6.6	
C=CCc1cc2c(c(C(O)CCCCCCCC)c1OC)OCO2 (single isomer, unassigned) [Compound 7]			Rel. Activity Dillapiol = 1.0 (human cytochrome CYP3A4; Table 1): 2.2; IC50 (human cytochrome CYP3A4; [2]): 190 µM
C=CCc1cc2c(c(C(O)CCCCCCCC)c1OC)OCO2 (stereo not drawn) [Compound 2]			CYP3A4 inhibition compared with dillapiol (in words) (human cytochrome CYP3A4; Table 1): at least four times lower than dillapiol; Rel. Activity Dillapiol = 1.0 (human cytochrome CYP3A4; Table 1): 15; IC50 (human cytochrome CYP3A4; [2]): 26 µM
C=CCc1cc2c(c(OCCCCCCCC)c1OC)OCO2 [Compound 3]			Rel. Activity Dillapiol = 1.0 (human cytochrome CYP3A4; Table 1): 1.3; IC50 (human cytochrome CYP3A4; [2]): 320 µM
C=CCc1cc2c(c(CO)c1OC)OCO2 [Compound 4]			Rel. Activity Dillapiol = 1.0 (human cytochrome CYP3A4; Table 1): 0.45; IC50 (human cytochrome CYP3A4; [2]): 900 µM
C=CCc1cc2c(c(COC)c1OC)OCO2 [Compound 5]			Rel. Activity Dillapiol = 1.0 (human cytochrome CYP3A4; Table 1): 1.3; IC50 (human cytochrome CYP3A4; [2]): 320 µM

SMILES	IC50 (CYP3A4 (BDGentest); [1])	% Activity relative to dillapiol = 1 (CYP3A4 (BDGentest))	also measured
C=CCc1cc2c(c(/C=C/C(=O)OC)c1OC)OCO2 [Compound 6]			Rel. Activity Dillapiol = 1.0 (human cytochrome CYP3A4; Table 1): 1.7; IC50 (human cytochrome CYP3A4; [2]): 240 µM
C=CCc1cc2c(c(C=O)c1OC)OCO2 [Compound 8]			Rel. Activity Dillapiol = 1.0 (human cytochrome CYP3A4; Table 1): 0.66; IC50 (human cytochrome CYP3A4; [2]): 620 µM
C=CCc1cc2c(c(CC=C)c1OC)OCO2 [Compound 9]			IC50 (human cytochrome CYP3A4): 810 µM; Rel. Activity Dillapiol = 1.0 (human cytochrome CYP3A4; Table 1): 2.0
C=CCc1cc2c(c(O)c1OC)OCO2 [Compound 10]			IC50 (human cytochrome CYP3A4): 1600 µM; Rel. Activity Dillapiol = 1.0 (human cytochrome CYP3A4; Table 1): 0.26
COc1c(CCCOC(=O)C(c2ccccc2)c2ccccc2)cc2c(c1OC)OCO2 [Compound 48]			CYP3A4 inhibition (in words) (CYP3A4 (BDGentest)): potent inhibitor
COc1ccc(OC)c(COc2cc3c(cc2CCCOC(=O)c2ccccc2)OCO3)c1 [Compound 50]			CYP3A4 inhibition (in words) (CYP3A4 (BDGentest)): strong CYP3A4 inhibitors
COc1c(C/C=C/Cc2cc3c(c(OC)c2OC)OCO3)cc2c(c1OC)OCO2 [Compound 56]	1.8 µM	5.1	% Activity relative to dillapiol = 1 (CYP3A4 (BDGentest); listed as drawing 59): 5.1
OC(CCCC/C=C/c1ccc2c(c1)OCO2)(c1ccccc1)c1ccccc1 [Compound 59]	0.54 µM and 0.517 µM	17	
COc1cc2c(cc1CCCOC(=O)C(c1ccccc1)c1ccccc1)OCO2 [Compound 61]	0.47 µM	19.5	CYP3A4 inhibition (in words) (CYP3A4 (BDGentest)): strong CYP3A4 inhibitors
COc1cc2c(cc1CCCOC(=O)c1ccccc1)OCO2 [Compound 63]			CYP3A4 inhibition (in words) (CYP3A4 (BDGentest)): strong CYP3A4 inhibitors
COc1ccc(OC)c(COc2cc3c(cc2CCCOC(=O)C(c2ccccc2)c2ccccc2)OCO3)c1 [Compound 69]			CYP3A4 inhibition (in words) (CYP3A4 (BDGentest)): strong CYP3A4 inhibitors
O=C(OCCCc1cc2c(cc1OCc1ccccc1)OCO2)C(c1ccccc1)c1ccccc1 [Compound 70]		4	CYP3A4 inhibition (in words) (CYP3A4 (BDGentest)): strong CYP3A4 inhibitors
C=CCc1cc2c(cc1O)OCO2 [drawing 54]	> 28.1 µM		
COc1c(CCCOC(=O)C(c2ccccc2)c2ccccc2)cc2c(c1OC)OCO2 [drawing 58]	0.434 µM	21.15	
COc1ccc(OC)c(COc2cc3c(cc2CCCOC(=O)c2ccccc2)OCO3)c1 [drawing 60]	0.36 µM and 0.355 µM	25.5	
COc1c(C/C=C/Cc2cc3c(c(OC)c2OC)OCO3)cc2c(c1OC)OCO2 [drawing 66]	1.44 µM	6.3	
COc1cc2c(cc1CCCOC(=O)c1ccccc1)OCO2 [drawing 73]	2.07 µM	4.4	
COc1ccc(OC)c(COc2cc3c(cc2CCCOC(=O)C(c2ccccc2)c2ccccc2)OCO3)c1 [drawing 79]	0.23 µM	41	
O=C(OCCCc1cc2c(cc1OCc1ccccc1)OCO2)C(c1ccccc1)c1ccccc1 [drawing 80]	0.62 µM and 0.624 µM	14	
